Measured values from ChEMBL document CHEMBL1140107, “Design, synthesis, and evaluation of potent and selective ligands for the dopamine 3 (D3) receptor with a novel in vivo behavioral profile” (J Med Chem, 2008).

How the values were obtained:
[1] = Aqueous solubility of the compound; details: aqueous medium (not further specified)
[2] = molecular target: D(2) dopamine receptor (Rattus norvegicus, UniProt P61169); experiment: Displacement of [3H]Spiperone from D2 receptor in Sprague-Dawley rat caudate-putamen; format: tissue-based
[3] = molecular target: D(1A) dopamine receptor (Rattus norvegicus, UniProt P18901); experiment: Displacement of [3H]SCH23390 from D1-like receptor in Sprague-Dawley rat striatum
Chain of D(1A) dopamine receptor (P18901 whole entry): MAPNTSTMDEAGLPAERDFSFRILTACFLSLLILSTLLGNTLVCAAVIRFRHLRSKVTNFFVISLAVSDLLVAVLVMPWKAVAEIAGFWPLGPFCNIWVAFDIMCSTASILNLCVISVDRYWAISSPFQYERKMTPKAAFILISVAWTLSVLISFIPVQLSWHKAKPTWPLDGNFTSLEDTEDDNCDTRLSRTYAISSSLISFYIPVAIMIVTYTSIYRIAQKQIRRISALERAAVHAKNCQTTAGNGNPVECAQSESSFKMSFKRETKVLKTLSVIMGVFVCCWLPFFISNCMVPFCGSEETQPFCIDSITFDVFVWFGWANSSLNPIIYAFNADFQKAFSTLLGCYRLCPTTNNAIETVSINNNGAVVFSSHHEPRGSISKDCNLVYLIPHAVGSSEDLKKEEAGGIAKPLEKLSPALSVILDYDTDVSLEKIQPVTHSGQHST

Chain of D(2) dopamine receptor (P61169 whole entry): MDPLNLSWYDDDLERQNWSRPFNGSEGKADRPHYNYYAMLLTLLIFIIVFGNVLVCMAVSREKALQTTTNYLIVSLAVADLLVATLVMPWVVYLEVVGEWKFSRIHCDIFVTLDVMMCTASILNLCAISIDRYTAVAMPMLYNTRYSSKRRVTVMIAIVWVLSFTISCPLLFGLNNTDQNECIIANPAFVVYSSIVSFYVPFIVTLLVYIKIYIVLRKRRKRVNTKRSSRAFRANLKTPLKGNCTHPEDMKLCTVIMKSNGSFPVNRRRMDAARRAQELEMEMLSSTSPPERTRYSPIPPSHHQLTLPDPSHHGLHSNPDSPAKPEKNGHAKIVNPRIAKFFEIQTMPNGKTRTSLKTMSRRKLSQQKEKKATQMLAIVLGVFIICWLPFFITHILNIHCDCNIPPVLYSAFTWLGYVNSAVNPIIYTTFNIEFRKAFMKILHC

| Structure (SMILES) | solubility [1] [mg/mL] | Ki [2] [µM] | Ki [3] [µM] |
| --- | --- | --- | --- |
| CCCN(CC[C@H]1CC[C@H](NC(=O)c2ccc3ccccc3c2)CC1)[C@H]1CCc2nc(N)sc2C1.Cl.Cl | 100 | – | – |
| CCCN(CC[C@H]1CC[C@H](NC(=O)/C=C/c2ccccc2)CC1)[C@H]1CCc2nc(N)sc2C1 | – | 0.33 | – |
| CCCCN(CC[C@H]1CC[C@H](NC(=O)c2ccc3ccccc3c2)CC1)[C@H]1CCc2nc(N)sc2C1 | – | – | 5.4 |
| CC(C)CCN(CC[C@H]1CC[C@H](NC(=O)c2ccc3ccccc3c2)CC1)[C@H]1CCc2nc(N)sc2C1 | – | – | 13 |
| Nc1nc2c(s1)C[C@@H](NCC[C@H]1CC[C@H](NC(=O)c3ccc4ccccc4c3)CC1)CC2 | – | – | 64 |
| COc1ccc2c(c1)CC[C@@H]1CN(CC[C@H]3CC[C@H](NC(=O)c4ccc5ccccc5c4)CC3)CCN21 | – | > 10 | > 50 |
| CCCN[C@H]1CCc2nc(N)sc2C1 [PRAMIPEXOLE] | – | – | > 100 |
